The subject of this assay is swine sperms. Put plainly: Swine sperm motility analyzed by CASA during incubation with NMN alone or NMN+PQQ. The assay is classed as cell-based. As to the method:
Upon arrival of a pack containing swine diluted semen (sperm concentration (total sperm count) 30,000,000/ml, HIRO-SWINE B solution (HIROSHIMA CRYO-PRESERVATION SERVICE) was used as a diluent) provided by Oita Prefectural Agriculture, Forestry and Fisheries Research Center, the pack was immediately stored in an incubator at 15° C. The next day, 5 ml of the above semen from each pack was transferred to a 15 ml centrifuge tube, NMN was added to concentrations from 0.1 to 100 μM (0.1 μM, 1 μM, 10 μM, 100 μM) using HIRO-SWINE B solution as a culture medium, and they were incubated at 37° C. for up to 6 hours. For some diluted semen, pyrrolo-quinoline quinone (PQQ) (MITSUBISHI GAS CHEMICAL COMPANY, INC) was added to a concentration of 100 nM, in addition to NMN or without the addition of NMN, and it was incubated in the same manner. Sperms were taken out at 0, 2, 4, and 6 hours after the start of incubation, and their sperm motility was analyzed using CASA (HT CASA-Ceros II (product name), Hamilton Thorne, Inc.). […] The error bars in FIG. 2 represent standard errors. Sperm motion loci were also photographed by phase contrast microscopy at 2, 4, and 6 hours after the start of incubation and the photographs were shown in FIG. 3.

The mark [1] stands for this setting: NMN alone addition zone (PQQ-), 0.1-100 μM, effect observed up to 4 hours later.
The mark [2] stands for this setting: NMN alone addition zone, 6 hours later.

With `NC(=O)c1ccc[n+]([C@@H]2O[C@H](COP(=O)([O-])O)[C@@H](O)[C@H]2O)c1` [NMN, nicotinamide mononucleotide], the “total moment (proportion of sperms in motion to total sperms counted)” value (NMN 0.1-100 μM added to swine diluted semen, 37° C., up to 6 hours) was “not affected”. For the same compound, under setting [1], the “straight (forward) moment” value is “significantly increased” and the “straight (forward) speed” value is on record as “significantly increased”. Besides, under setting [2], the “improving effect on the straight moment” value is “disappeared” and the “improving effect on the straight speed” value is “disappeared”.

These data come from US20230321127A1, “SPERM MOTILITY IMPROVING AGENT AND SPERM MOTILITY IMPROVING METHOD” (MIRAILAB BIOSCIENCE INC., priority 2020, published 2023).
